Assay results as given in patent US6972343B1, “Quaternary bis-ammonium salt precursors and their uses as prodrugs having an antiparasitic activity” (CNRS, priority 1999, dated 2005).
“And” between values parts separate entries of the source, which are not always exact repeats. Identical values can stand only once. Counter-ions that a name gives are not always drawn. Like-named read-outs stand apart in the source and are kept apart here. Marks after values point to notes of the source that are not given here.

Assays:
P. falciparum = test: Antimalarial activity against P. falciparum in vitro (Desjardins [3H]hypoxanthine incorporation); format: cell-based
Protocol: FIG. 1, the anti-malarial action of a precursor of thiazolium (designated by TE4c in the examples), and corresponding thiazolium (T4) as a function of the concentration of drug, according to the Desjardins test, (Desjardins R. E. et al, Antimicrob. Agents Chemother. 1979, 16, 710-718),
The IC50 measurements are determined vis-à-vis P. falciparum according to the Desjardins method in which the incorporation of [^3H] hypoxanthine (FIG. 1) into the nucleic acids is an indicator of cell viability. In each case, optical microscopy controls are carried out.
(§1) The IC50 is the concentration which inhibits by 50% the in vitro growth of P. falciparum: the LD50 is the lethal dose corresponding to the death of 50% of the mice and the ED50 is the effective dose for inhibiting by 50% the in vivo growth of P. vinckei according to a 4-day suppressive test, TI corresponds to the therapeutic index, TI=LD50 (semi-chronic)/ED50; ip: intraperitoneal administration; po: per os.

[1] = Tolerance in the mouse: LD50 after acute or semi-chronic administration; format: in vivo; conditions: for Oral absorption index (LD50 po/LD50 ip ratio, acute): acute administration; for LD50 / LD50 at 4 days: in vivo; for LD50 / In vivo LD50 (mg/kg) (mouse) acute: single dose; for LD50 at 4 days / In vivo LD50 (mg/kg) (mouse) semi-chronic: twice per day for 4 consecutive days
Description: (§2) B) Antimalarial Activity in vivo Against a Mouse Infected by P. vinckei and Tolerance After Administration in Acute or Semi-chronic Conditions.
as §1

P. vinckei = test: animal or person; format: in vivo; conditions: mouse, 4-day suppressive test, TE4c in 50/50 PEG/castor oil; for ED50: Plasmodium vinckei, 96 h, read-out: In vivo ED50 (mg/kg) (P. vinckei)
Description: as §2, §1

[2] = Pharmacokinetics in the monkey (ex vivo bio-test serum level); conditions: Macaca fascicularis, intramuscular 4 mg/kg
Protocol: (§3) For determination of the serum level, bio-tests are used ex vivo: briefly, the medicament is administered to the animal, then repeated blood samples are taken. The sera are decomplemented for 30 minutes at 56° C. The active metabolite content is then determined by incubation of different concentrations (dichotomic dilution) of each serum, in the presence of suspensions of erythrocytes infected by P. falciparum, according to the DESJARDINS method with [^3H] hypoxanthine.
The results are expressed in IS50, which corresponds to the percentage of serum (containing an active metabolite) capable of inhibiting the growth of P. falciparum by 50%. […]
The results are expressed as the log (serum level of medicaments), as a function of time, which allows the evaluation of the half-time for distribution to the serum compartment t1/2(d); the half-time for elimination of the serum compartment (t1/2(e)); of C0), corresponding to the serum level originally extrapolated during the elimination phase; the AUC (which indicates the quantity of drug circulating in the blood stream); and the relative bio-availability in the oral route administration method, as against the intraperitoneal route method [AUC (po)/AUC (ip)] which is an indicator of the degree of absorption by oral route. […]

Babesia divergens = test: Antibabesiasis activity in vitro against Babesia divergens; format: cell-based
Protocol: (§4) The products TE4c, TS3b and P1 were also evaluated in vitro for their activities against Babesia divergens and B. canis.

B. canis = test: Antibabesiasis activity in vitro against B. canis; format: cell-based
Protocol: as §4

[3] = Pharmacokinetics / serum level in the mouse (ex vivo bio-test on P. falciparum)
Protocol: The results of the pharmacokinetic parameters after administration by intraperitoneal or oral route in a mouse for a prodrug of disulphice type (TS3b) and a prodrug of thioester type (TE4c) are presented hereafter.
as §3
The results are expressed in IS50, which corresponds to the percentage of serum (containing an active metabolite) capable of inhibiting the growth of P. falciparum by 50%.
This value is then converted into a serum concentration, (usually expressed in ng/ml) by testing the active compound directly (without passing through the animal), on the same suspension infected by P. falciparum and by determining its IC50 value (in ng/ml) [serum level=IC50] (in ng/ml)×100/IS50 (in %)].
The results are expressed as the log (serum level of medicaments), as a function of time, which allows the evaluation of the half-time for distribution to the serum compartment t1/2(d); the half-time for elimination of the serum compartment (t1/2(e)); of C0), corresponding to the serum level originally extrapolated during the elimination phase; the AUC (which indicates the quantity of drug circulating in the blood stream); and the relative bio-availability in the oral route administration method, as against the intraperitoneal route method [AUC (po)/AUC (ip)] which is an indicator of the degree of absorption by oral route.

[4] = test system: P. falciparum (FVO strain); test: Antimalarial activity against Plasmodium falciparum in the Aotus monkey; format: in vivo; conditions: Aotus monkeys
Protocol: 3 Aotus monkeys were infected with P. falciparum (FVO strain). When the blood parasitemia reached 1% (2 monkeys) or 6% (1 monkey), treatment by intramuscular route at a rate of 2 injections per day of TE4c (2mg/kg), for 8 days, was carried out.

[5] = in vitro growth of P. falciparum, [3H]hypoxanthine incorporation, 48 hours test, read-out: IC50
[6] = ip, TE4c value corresponds to death of only 25% of the mice, read-out: In vivo LD50 (mg/kg) (mouse) semi-chronic
[7] = po, read-out: In vivo LD50 (mg/kg) (mouse) semi-chronic
[8] = ip, TE4c value corresponds to death of only 25% of the mice
[9] = 3 mg/kg ip and 50 mg/kg po, both routes
[10] = ip 3 mg/kg TE4c, active metabolite considered to be T4
[11] = oral 50 mg/kg TE4c, active metabolite considered to be T4
[12] = oral route, higher dose series (150 mg/kg po)

“2,15-(N,N′-diformyl-N,N′-dibenzyl)diamino-1,16-S-thiobenzoyl-hexadeca-1,15-diene [TE16]” gave an IC50 (P. falciparum; [5]) of 12 nM.

`CCOC(=O)CC(=C(CCCCCCCCCCCCC(SC(=O)c1ccccc1)=C(CC(=O)OCC)N(C=O)Cc1ccccc1)SC(=O)c1ccccc1)N(C=O)Cc1ccccc1` [TE13, ethyl 3,18-(N,N′-diformyl-N,N′-dibenzyl)diamino-4,17-S-thiobenzoyleicosa-3,17-dienedioate] gave an IC50 (P. falciparum; [5]) of 650 nM.

Work on `CCN(CC)Cc1ccc(C(=O)SC(CCOC)=C(C)N(C=O)CCCCCCCCCCCCN(C=O)C(C)=C(CCOC)SC(=O)c2ccc(CN(CC)CC)cc2)cc1` [TE4f, N,N′-diformyl-N,N′-di[1-methyl-2-S-(p-diethylaminomethylphenylcarboxy)-thio-4-methoxybut-1-enyl]-1,12-diaminododecane] yielded an IC50 (P. falciparum; [5]) of 2.3 nM.

In the case of “1,12-decamethylene bis[4-methyl-5-(2-methoxyethyl)thiazolium] diiodide [T4]”, the IC50 (P. falciparum; [5]) is reported as 0.65 nM.

In the case of `C[N+]1(CCCCCCCCCCCCCCCC[N+]2(C)CCCC2)CCCC1` [G25, 1,16-hexadecamethylene bis-(N-methylpyrrolidinium), reference compound], the IC50 (P. falciparum; Plasmodium falciparum) is reported as 0.6 nM, the “Oral absorption index (LD50 po/LD50 ip ratio, acute)” value [1] is reported as 87 and the LD50 ([1]; ip) is reported as 1.27 mg/kg. For the same compound, the LD50 at 4 days [1, 6] was 1.15 mg/kg, the LD50 ([1]; po) was 130 mg/kg and the LD50 at 4 days [1, 7] was 65 mg/kg. It also gave an ED50 (P. vinckei; ip) of 0.22 mg/kg and an ED50 (P. vinckei; po) of ~15 mg/kg.

`Cc1csc[n+]1CCCCCCCCCCCC[n+]1cscc1C` [T6, 1,12-dodecamethylenebis(4-methylthiazolium) diiodide] gave an IC50 (P. falciparum; [5]) of 3 nM.

`c1ccc(Cc2csc[n+]2CCCCCCCCCCCC[n+]2cscc2Cc2ccccc2)cc1` [T16, dodecamethylenebis[4-(1-benzyl)-thiazolium] dibromide] showed an IC50 (P. falciparum; [5]) of 10 nM.

With `CCCSSC(CCO)=C(C)N(C=O)CCCCCCCCCCCCN(C=O)C(C)=C(CCO)SSCCC` [TS3b, N,N′-diformyl-N,N′-di[1-methyl-2-propyl-dithio-4-hydroxybut-1-enyl]-1,12-diaminododecane] the IC50 (P. falciparum; Plasmodium falciparum, in vitro growth of P. falciparum, [3H]hypoxanthine incorporation, 48 hours test, read-out: IC50) was 1.3 nM, the “Oral absorption index (LD50 po/LD50 ip ratio, acute)” value [1] was 6.7 and the LD50 at 4 days ([1]; ip, infected mice, ip, read-out: In vivo LD50 (mg/kg) semi-chronic in mice infected with malaria) was 32 mg/kg. For the same compound, the LD50 ([1]; ip) was 240 mg/kg, the LD50 at 4 days [1, 6] was 90 mg/kg and the LD50 ([1]; po) was 1600 mg/kg. For the same compound, the LD50 at 4 days [1, 7] was 410 mg/kg, the ED50 (P. vinckei; ip) was ~7 mg/kg and the ED50 (P. vinckei; po) was ~180 mg/kg. For the same compound, the “time of first serum level peak” value [2] was “in less than two hours”, the IC50 (Babesia divergens) was < 20 nM and the IC50 (B. canis) was < 20 nM.

For `Cc1c(CCOCCCCCCOCCc2sc[n+](Cc3ccccc3)c2C)sc[n+]1Cc1ccccc1` [T10, 3,10-dioxadodecamethylenebis[5-(1-benzyl, 4-methyl)-thiazolium] dibromide], the IC50 (P. falciparum; [5]) was 2.5 nM.

In the case of `COCCC(SC(=O)c1ccccc1)=C(C)N(C=O)CCCCCCCCCCCCN(C=O)C(C)=C(CCOC)SC(=O)c1ccccc1` [TE4c, N,N′-diformyl-N,N′-di[1-methyl-2-S-thiobenzoyl-4-methoxybut-1-enyl]-1,12-diaminododecane], the IC50 (P. falciparum; [5]) is reported as 2 nM, the “Oral absorption index (LD50 po/LD50 ip ratio, acute)” value [1] is reported as “˜10” and the “In vivo LD50 (mg/kg) (mouse) acute” value ([1]; ip) is reported as 100 mg/kg. The “In vivo LD50 (mg/kg) (mouse) semi-chronic” value [1, 8] was “≧30^d mg/kg”, the “In vivo LD50 (mg/kg) (mouse) acute” value ([1]; po) was “˜1000 mg/kg” and the “In vivo LD50 (mg/kg) (mouse) semi-chronic” value ([1]; po) was “˜300 mg/kg”. For the same compound, the “In vivo ED50 (mg/kg) (P. vinckei)” value (P. vinckei; ip) was 1 mg/kg, the “time of first serum level peak” value [3, 9] was “in less than two hours” and the “time of second serum level peak” value [3, 9] was “around 15 hours”. The “relative bioavailability [AUC (po)/AUC (ip)]” value ([3]; 50 mg/kg po vs 3 mg/kg ip) was 5%, the “time of second serum level peak” value ([3]; higher doses 10 mg/kg ip and 150 mg/kg po) was “around 23 hours” and the AUC [3, 10] was 3300 ng·h/mL. The C0 [3, 10] was 180 ng/mL, the t1/2 [3, 10] was 12 h and the AUC [3, 11] was 2700 ng·h/mL. For the same compound, the C0 [3, 11] was 130 ng/mL, the C0 [3, 12] was 1000 ng/mL and the t1/2 [3, 12] was “around 10 hours”. The “recurrence of parasitemia after treatment” value ([4]; 6 months following the treatment) was “no further occurrence was observed in the 6 months following the treatment” and the “blood parasitemia after treatment” value ([4]; parasitemia 1% or 6% at start, im 2 mg/kg, 2 injections per day, 8 days) was “completely eliminated”.

In the case of “N,N′-diformyl-N,N′-di[1-methyl-2-S-(p-phthaloyl)-thio-4-methoxybut-1-enyl]-1,12-diaminododecane [TE4j]”, the IC50 (P. falciparum; [5]) is reported as 2.7 nM.

`COCCC(SC(=O)c1ccc(CN2CCOCC2)cc1)=C(C)N(C=O)CCCCCCCCCCCCN(C=O)C(C)=C(CCOC)SC(=O)c1ccc(CN2CCOCC2)cc1` [TE4g, N,N′-diformyl-N,N′-di[1-methyl-2-S-(p-morpholino-methylphenylcarboxy)-thio-4-methoxybut-1-enyl]-1,12-diaminododecane] gave an IC50 (P. falciparum; [5]) of 2.3 nM.

In the case of `CC(=C1CCOC(=O)S1)N(C=O)CCCCCCCCCCCCN(C=O)C(C)=C1CCOC(=O)S1` [TE3, N,N′-diformyl-N,N′-di[1(2-oxo-4,5-dihydro-1,3-oxathian-4-ylidene)ethyl]1,12-diaminododecane], the IC50 (P. falciparum; [5]) is reported as 3 nM and 2.6 nM.

For `Cc1c(CCO)sc[n+]1CCCCCCCCCCCC[n+]1csc(CCO)c1C.[Br-].[Br-]` [T3, 1,12-dodecamethylene bis [4-methyl-5-(2-hydroxyethyl)thiazolium] dibromide], the IC50 (P. falciparum; [5]) was 2.25 nM, the “Oral absorption index (LD50 po/LD50 ip ratio, acute)” value [1] was 70 and the “In vivo LD50 (mg/kg) (mouse) acute” value ([1]; ip) was 10 mg/kg. For the same compound, the “In vivo LD50 (mg/kg) (mouse) semi-chronic” value [1, 8] was 7.5 mg/kg, the “In vivo LD50 (mg/kg) (mouse) acute” value ([1]; po) was 700 mg/kg and the “In vivo LD50 (mg/kg) (mouse) semi-chronic” value ([1]; po) was 160 mg/kg.

In the case of `COc1ccc(C(=O)SC(CCOCCCCCCOCCC(SC(=O)c2ccc(OC)cc2)=C(C)N(C=O)Cc2ccccc2)=C(C)N(C=O)Cc2ccccc2)cc1` [TE10, 2,17-(N,N′-diformyl-N,N′-dibenzyl)diamino-3,16-S-thio-p-methoxybenzoyl-6,13-dioxaoctadeca-2,16-diene], the IC50 (P. falciparum; [5]) is reported as 12 nM.

In the case of “1,16-hexadecamethylenebis[4-methyl-5-(2-methoxyethyl)thiazolium] diiodide [T8]”, the IC50 (P. falciparum; [5]) is reported as 1.1 nM.

“N,N′-dimethyl-N,N′-(5-chloropentyl)-1,16-hexadecane diamine hydrochloride [P1]” showed an IC50 (P. falciparum; [5]) of 1.7 nM.

`CC(Cl)CCCN(C)CCCCCCCCCCCCCCCCN(C)CCCC(C)Cl` (stereo not shown) [P2, N,N′-dimethyl-N,N′-(4-chloropentyl)-1,16-hexadecanediamine hydrochloride] showed an IC50 (P. falciparum; [5]) of 0.5 nM.

Compound `CCOC(=O)CCc1c(CCCCCCCCCCCCc2sc[n+](Cc3ccccc3)c2CCC(=O)OCC)sc[n+]1Cc1ccccc1` [T13, dodecamethylenebis[5-(1-benzyl-4-ethoxycarbonylethyl)-thiazolium] dibromide] has an IC50 (P. falciparum; [5]) of 250 nM.
